SMILES	melting point [°C]
O=S(=O)(c1ccc(S)cc1)C(F)(F)F	116 to 118
O=C(NC1CC1)c1ccc(Cl)c([N+](=O)[O-])c1	130 to 132
CCOc1ccc(S(N)(=O)=O)cn1	133 to 135
CC1CCCC(=O)N1 (stereo not drawn)	87 to 89
O=C(O)Cn1c(=O)n(C2=CCCCC2)c2ccccc21	145 to 147
NNC(=O)CSc1ccc(Cl)cc1	100 to 102
O=C1C(=O)N(Cc2ncon2)c2ccc(Br)cc21	197 to 199
Cc1cc2n(n1)CCC(=O)N2	221 to 223
O=C(O)c1ccc(N/N=C/c2cccc(F)c2)cc1	229 to 231
Nc1cccc(-c2ncco2)c1	61 to 63
CNCc1nnc[nH]1	91 to 93
CC(=O)Nc1ccc(CCO)cc1	106 to 108
Cc1sc2nc(CCCC(=O)O)[nH]c(=O)c2c1C	243 to 245
N#Cc1c(CCCN)n[nH]c1N	169 to 171
COC(=O)c1cnn2c1CCCC2	64 to 66
NS(=O)(=O)c1cccc(F)c1	129 to 131
NC(=S)c1cnc2ccccn12	214 to 216
Cn1cnc([N+](=O)[O-])c1CCl	127 to 129
c1ccc(CNc2ccc(N3CCOCC3)cc2)nc1	132 to 134
CC(O)c1cc[nH]n1 (stereo not drawn)	58 to 60
NC(=O)C1CCCN(c2ccc(C(=O)O)cc2)C1 (stereo not drawn)	259 to 261
COC(=O)CN1CCC(C(N)=O)CC1	126 to 128
Cc1ccc(-c2n[nH]c(=O)c3ccccc23)cc1C	252 to 254
CC(C)c1cccc(N2CC(C(=O)O)CC2=O)c1 (stereo not drawn)	126 to 128
Nc1ccn(-c2ccccc2)n1	77 to 79

SMILES	melting point [°C]
N#Cc1cccc(I)c1N	115 to 117
COC(=O)c1ccc(COc2ccccc2C=O)cc1	90 to 92
Cc1ccc(F)c(-n2nnnc2CCl)c1	51 to 53
O=S(=O)(c1cccs1)N1CCNCC1	98 to 100
ClCc1ccc(-c2nc3cc(Cl)ccc3s2)cc1	164 to 166
Cc1nc(-c2ccccc2)c(N)s1	169 to 171
Cc1ccc(C)c(OCc2nnc(S)o2)c1	135 to 137
O=C(CN1CCCC1)Nc1c(I)cc(I)cc1I	184 to 186
N#Cc1cccc(NN)c1	104 to 106
CNS(=O)(=O)Cc1ccc(C#N)cc1	154 to 158
ClCc1cc(Cl)cc2c1OCC2	46 to 48
COc1c(Br)cc(Br)cc1C=O	93 to 96
CCOc1ccc(S(=O)(=O)N(C)c2ccc(O)cc2)cc1	129 to 133
Cc1cc(Nc2nc3ccccc3nc2Cl)n(-c2ccccc2)n1	178 to 180
CC(C)C(NC1=NS(=O)(=O)c2ccccc21)C(=O)O (stereo not drawn)	234 to 236
COC(=O)c1c(C)cccc1S(=O)(=O)Cl	53 to 55
Cc1cc(C)c2nc(O)cc(C)c2c1	261 to 263
O=C1CNc2ccc(S(=O)(=O)N3CCCCC3)cc2N1	144 to 146
O=C(O)CNC(=O)C1CCOCC1	166 to 168
COc1ccc(Oc2ccc(N)cn2)cc1	95 to 97
O=C(O)CN1C(=O)NC2(CCCC2)C1=O	165 to 167
CC1(C)SC[C@H](C(=O)O)NC1=O	205 to 207
O=C1NC(=O)C(Cc2ccccc2)(c2ccccc2)N1 (stereo not drawn)	209 to 211
O=C1CCN(C(=O)C2CC2)CC1	72 to 74
N#Cc1c[nH]c2ccc(Cl)cc2c1=O	381 to 383

SMILES	melting point [°C]
COc1ccc(CC(=O)O)c(Cl)c1	118 to 120
Cc1nc(-c2ccc(Cl)s2)sc1C(=O)O	255 to 257
O=c1[nH]c(CCl)nc2c1cnn2-c1ccccc1	259 to 261
CC(C)(C)Nc1ccc(C(N)=NO)nc1	139 to 141
Cc1ccc(Cn2nc(C)c(C(=O)O)c2C)cc1	134 to 136
CC1Cc2cc(S(N)(=O)=O)cc(Cl)c2O1 (stereo not drawn)	174 to 176
Nc1nc(-c2ccccc2)cn1/N=C/c1ccccc1	202 to 204
Cc1cnc2ccccc2c1N	139 to 141
Cc1cc(CSc2ccccc2C(=O)O)on1	157 to 161
CC(=O)CC(=O)Nc1ccc(F)cc1	101 to 103
CS(=O)(=O)c1cc(C#N)ccn1	143 to 145
COc1cc(OC)cc(C(N)c2nccn2C)c1 (stereo not drawn)	99 to 101
CC(=O)Nc1ccc(NC(=O)CC#N)cc1	305 to 307
CN1CCN(c2ncc(Br)cc2CO)CC1	140 to 142
NNC(=S)NCC(N)=O	153 to 155
OCc1cccc(OCC(F)(F)F)c1	30 to 32
O=Cc1csc(COc2ccccc2)n1	76 to 78
CC(C)(C)c1nn(Cc2ccccc2)cc1C=O	64 to 66
CCOc1cc(F)ccc1[N+](=O)[O-]	31 to 33
COc1ccc2oc(C(=O)O)c(C)c2c1	202 to 204
Cc1cccc2c(CC(=O)O)c(-c3ccccc3)[nH]c12	159 to 161
CC(=O)c1ccc(-c2ccc(C(F)(F)F)cc2)s1	127 to 129
CCNC(=O)NC(=O)C(C)Cl (stereo not drawn)	126 to 128
Cc1cc(-c2ccccc2)nc(S)n1	208 to 210
N#CCCNS(=O)(=O)c1ccc(C(=O)O)cc1	240 to 242

SMILES	melting point [°C]
COc1ccc2c(c1)c(C(=O)O)c(C)n2C1CCCCC1	137 to 139
Sc1nnc2c(Cl)cc(Cl)cn12	257 to 259
NC(=O)c1c(NC(=O)CCC(=O)O)sc2c1CCC2	231 to 233
COc1ccc(-c2cncc(C(=O)O)c2)cc1	278 to 280
O=C(O)CCC(NC(=O)Cc1ccc2ccccc2c1)C(=O)O (stereo not drawn)	173 to 175
CN(C)C(=O)Sc1cnc2nc(C#N)c(C#N)n2c1	180 to 182
N#CCC(=O)c1c(Cl)cccc1Cl	63 to 65
O=C(O)c1nn(-c2cc(C(F)(F)F)ccc2Cl)c2c1CCC2	229 to 231
N#Cc1cc(Br)c2cc[nH]c2c1	139 to 141
CN(C)c1ncnc(Cl)c1CCl	64 to 66
O=C(O)c1cccn1CCc1ccccc1	119 to 121
N#Cc1cc(N)ncc1Br	184 to 186
CCN(CCC(N)=S)C(C)=O	56 to 58
CCNC(=O)c1cccc(C#N)c1	99 to 101
NS(=O)(=O)Cc1ccc(C(=O)O)cc1	275 to 277
NS(=O)(=O)c1ccc(Br)c(C(=O)O)c1	231 to 233
Cc1ccc(-c2cnnc(N)n2)s1	300 to 302
Nc1c(NCCCO)c(=O)[nH]c(=O)n1Cc1ccccc1	155 to 157
O=C(O)c1ccnc(OC2CCOC2)c1 (stereo not drawn)	109 to 111
CCNS(=O)(=O)c1cccc(F)c1	49 to 51
NC(=S)CCCc1ccccc1	59 to 61
Nc1ncc(Cc2cccc(C(F)(F)F)c2)s1	73 to 77

Other lines, results leading:

melting point [°C]	SMILES
246 to 248	N#Cc1ccc(Oc2ccc(C(=O)O)cc2)nc1
155 to 157	Cc1cc([N+](=O)[O-])ccc1S(N)(=O)=O
121 to 123	CN(C)CC(C)(C)CNC(N)=S
49 to 51	CCc1c(N)cnn1C
112 to 114	CC(O)c1cccc(O)c1 (stereo not drawn)
50 to 52	O=Cc1nccn1CC(F)(F)F
170 to 172	Nc1ccc2c(c1)CCC(=O)N2
129 to 131	CCCN1C(=O)C(=O)c2cc(Br)ccc21
178 to 182	NC(=O)Nc1ccc2c(c1)OCO2
175 to 177	Cc1cc(C(=O)O)nn1C(F)F
118 to 120	CCOCc1nnc(N)o1
135 to 137	O=C(CCl)Nc1nc(-c2ccccc2Cl)c(-c2ccccc2Cl)s1
221 to 223	N#Cc1ccc(OCc2cccc(C(=O)O)c2)cc1
113 to 115	COc1cc(OC)c2cc(CCCN)[nH]c2c1
176 to 178	O=C(O)CN1CC(=O)Oc2ccccc21
138 to 140	Cn1nc(C(C)(C)C)cc1NC(=O)CCl
71 to 73	CCN(CC)C(=O)c1ccccc1N
160 to 162	COC(=O)c1cc(S(=O)(=O)N2CCCC2)ccc1O
128 to 130	O=C(CCl)/N=c1\sccn1Cc1ccc(Cl)cc1Cl
38 to 40	CN1CCc2cc(C=O)ccc21
116 to 119	O=S(=O)(O)c1nc2ccccc2[nH]1
137 to 139	COc1ccc(S(=O)(=O)N2CCCCC2)cc1N
70 to 72	NCC1CCN(C(=O)c2ccccc2)CC1

melting point [°C]	SMILES
129 to 131	O=C(O)CN(C(=O)c1ccc(Br)o1)c1ccccc1
149 to 151	COc1cc(C(=O)O)c([N+](=O)[O-])cc1OCC#N
68 to 70	OCc1ccc(OCc2cccs2)cc1
72 to 74	CCOc1cccc2cc(C(C)=O)oc12
96 to 98	Nc1cncc(Br)c1Cl
112 to 114	N#Cc1cccc(CN2C(=O)CSC2=O)c1
218 to 220	CS(=O)(=O)N1CCCc2cc(C(=O)O)ccc21
159 to 161	Cn1cnc(-c2ccccc2)c1N
235 to 237	COc1ccccc1Nc1nc2sc(C(=O)O)cc2s1
137 to 139	CNC(=O)c1cc(Cl)ccc1[N+](=O)[O-]
246 to 248	CCNC(=O)CN(CC)C(=O)CCl
137 to 139	COc1ccc(C(=O)NN)cc1Br
173 to 175	Cc1nn(C(F)F)c(C)c1CC(=O)O
133 to 135	Cc1cc(C)cc(N(CCC(=O)O)S(=O)(=O)c2ccc(Br)cc2)c1
78 to 80	COc1ccc([N+](=O)[O-])cc1CCl
199 to 201	O=C1NC(=O)C(c2cccs2)(C2CC2)N1 (stereo not drawn)
71 to 73	CC(Cl)C(=O)Nc1ccccc1[N+](=O)[O-] (stereo not drawn)
99 to 101	COc1ccc(C)cc1NCCCC(=O)O
173 to 175	CCNC(=O)c1cccc(NC(=O)CCl)c1
231 to 233	CCOC(=O)c1sc2nc(Cc3ccccn3)[nH]c(=O)c2c1C
241 to 243	COc1cc(N)ccc1S(N)(=O)=O
180 to 182	Nc1ccc2c(c1)nc1n2CCCCC1
155 to 157	CC(C)CNc1nnc(S)s1
